For 41 molecules, melting point results are on record in patent US7060822B1, “2-pyrazolin-5-ones” (Abbott GmbH & Co. KG, priority 1999, dated 2006).

SMILES strings stand for the structures.

On to `Cc1c[nH]c(C=C2C(=O)NN=C2CCc2ccc(N)cc2)c1` [Example 42, 3-(4-Aminophenylethyl)-4-[(4-methylpyrrol-2-yl)methylene]-2-pyrazolin-5-one], for which the melting point (commonly the temperature of the solid-liquid transition) lay within 178 to 180 °C.

For `CC(C)OC1=NNC(=O)C1=Cc1cccn1C` [Example 43, 3-Isopropoxy-4-[(1-methylpyrrol-2-yl)methylene]-2-pyrazolin-5-one], the melting point is 199 to 201 °C.

`Cc1ccc(C=C2C(=O)NN=C2OC(C)C)[nH]1` [Example 44, 3-Isopropoxy-4-[(5-methylpyrrol-2-yl)methylene]-2-pyrazolin-5-one] registered a melting point of 128 to 130 °C.

With `CCc1c(C)[nH]c(C=C2C(=O)NN=C2CCc2ccc(N)cc2)c1C` [Example 45, 3-(4-Aminophenylethyl)-4-[(3,5-dimethyl-4-ethylpyrrol-2-yl)methylene]-2-pyrazolin-5-one], the melting point lay in the range of 183 to 185 °C.

Molecule `CCOC1=NNC(=O)C1=Cc1ccc(C)[nH]1` [Example 46, 3-Ethoxy-4-[(5-methylpyrrol-2-yl)methylene]2-pyrazolin-5-one] had a melting point of 197 to 199 °C.

As for `CCc1c(C)[nH]c(C=C2C(=O)NN=C2CCc2ccc(C(N)=O)cc2)c1C` [Example 47, 3-(4-Carbamoylphenylethyl)-4-[(3,5-dimethyl-4-ethylpyrrol-2-yl)methylene]-2-pyrazolin-5-one], the melting point is 297 to 299 °C.

`CCOC(=O)c1c(C)[nH]c(C=C2C(=O)NN=C2OC(C)C)c1C` [Example 49, 4-[(3,5-Dimethyl-4-ethoxycarbonylpyrrol-2-yl)methylene]-3-isopropoxy-2-pyrazolin-5-one]: the melting point fell in the range of 226 to 228 °C.

As to `CCOC(=O)c1c(C)[nH]c(C=C2C(=O)NN=C2CCc2ccc(N)cc2)c1C` [Example 50, 3-(4-Aminophenylethyl)-4-[(3,5-dimethyl-4-ethoxycarbonylpyrrol-2-yl)methylene]-2-pyrazolin-5-one], the melting point lay within 186 to 188 °C.

In turn, `CCc1ccc(C=C2C(=O)NN=C2OC(C)C)[nH]1` [Example 51, 4-[(5-Ethylpyrrol-2-yl)methylene]-3-isopropoxy-2-pyrazolin-5-one] displayed a melting point of 119 to 121 °C.

The molecule `CCc1c(C)[nH]c(C=C2C(=O)NN=C2CCc2ccc(O)cc2)c1C` [Example 52, 4-[(3,5-Dimethyl-4-ethylpyrrol-2-yl)methylene]-3-(4-hydroxyphenylethyl)-2-pyrazolin-5-one] came in with a melting point of 260 to 262 °C.

`CCOC(=O)CC1=NNC(=O)C1=Cc1ccc[nH]1` [Example 53, 3-(Ethoxycarbonylmethyl)-4-[(pyrrol-2-yl)methylene]-2-pyrazolin-5-one] returned a melting point of 124 to 126 °C.

`COc1ccc(NC(=O)CC2=NNC(=O)C2=Cc2ccc[nH]2)cc1` [Example 54, 3-(4-Methoxyphenylaminocarbonylmethyl)-4-[(pyrrol-2-yl)methylene]-2-pyrazolin-5-one] yielded a melting point of 240 to 242 °C.

`Cc1c[nH]c(C=C2C(=O)NN=C2C(C)C)c1CCC(=O)O` [Example 55, 4-{(3-(2-Carboxyethyl)-4-methylpyrrol-2-yl]methylene}-3-isopropyl-2-pyrazolin-5-one] had a melting point of 229 to 231 °C.

`O=C1NN=C(C2CCC2)C1=Cc1ccc[nH]1` [Example 57, 3-Cyclobutyl-4-[(pyrrol-2-yl)methylene]-2-pyrazolin-5-one]: the melting point was 150 to 152 °C.

`O=C1NN=C(C2CC2)C1=Cc1cccn1-c1cc(Cl)cc(Cl)c1` [Example 59, 3-Cyclopropyl-4-[[1-(3,5-dichlorophenyl)pyrrol-2-yl)methylene]-2-pyrazolin-5-one] showed a melting point of 188 to 190 °C.

As to `CC1(C)C(C2=NNC(=O)C2=Cc2ccc[nH]2)C1(C)C` [Example 60, 4-[(Pyrrol-2-yl)methylene]-3-(2,2,3,3-tetramethylcyclopropyl)-2-pyrazolin-5-one], the melting point was 160 to 162 °C.

Take `Cc1cc(C)c(C=C2C(=O)NN=C2C2CC2)[nH]1` [Example 61, 3-Cyclopropyl-4-[(3,5-dimethylpyrrol-2-yl)methylene]-2-pyrazolin-5-one]: the melting point lay in the range of 193 to 195 °C.

For the molecule `O=C1NN=C(C2CCCC2)C1=Cc1ccc[nH]1` [Example 62, 3-Cyclopentyl-4-[(pyrrol-2-yl)methylene]-2-pyrazolin-5-one], the melting point fell in the range of 127 to 129 °C.

`CC1CC1C1=NNC(=O)C1=Cc1ccc[nH]1` (centres unmarked) [Example 63, 3-(2-Methylcyclopropyl)-4-[(pyrrol-2-yl)methylene]-2-pyrazolin-5-one]: the melting point fell in the range of 132 to 133 °C.

Take `CCc1c(C)[nH]c(C=C2C(=O)NN=C2C2CC2)c1C` [Example 66, 3-Cyclopropyl-4[(3,5-dimethyl-4-ethylpyrrol-2-yl)methylene]-2-pyrazolin-5-one]: the melting point lay in the range of 206 to 210 °C.

The molecule `O=C1NN=C(c2ccc[nH]2)C1=Cc1ccc[nH]1` [Example 67, 3-(Pyrrol-2-yl)-4-[(pyrrol-2-yl)methylene]-2-pyrazolin-5-one] returned a melting point of 245 to 247 °C.

With `Cc1c[nH]c(C=C2C(=O)NN=C2C2CC2)c1` [Example 68, 3-Cyclopropyl-4-[(4-methylpyrrol-2-yl)methylene]-2-pyrazolin-5-one], the melting point lay within 212 to 215 °C.

`Cc1c[nH]c(C=C2C(=O)NN=C2c2nc3ccccc3s2)c1` [Example 69, 3-(Benzothiazol-2-yl)-4-[(4-methylpyrrol-2-yl)methylene]-2-pyrazolin-5-one] yielded a melting point of 327 to 329 °C.

In turn, `Cc1ccc(C=C2C(=O)NN=C2C2CC2)[nH]1` [Example 72, 3-Cyclopropyl-4-[(5-methylpyrrol-2-yl)methylene]-2-pyrazolin-5-one] yielded a melting point of 170 to 172 °C.

Consider `CCc1ccc(C=C2C(=O)NN=C2C2CC2)[nH]1` [Example 74, 3-Cyclopropyl-4-[(5-ethylpyrrol-2-yl)methylene]-2-pyrazolin-5-one], for which the melting point lay in the range of 163 to 165 °C.

In the case of `CCOC(=O)c1c(C)[nH]c(C=C2C(=O)NN=C2C2CC2)c1C` [Example 75, 3-Cyclopropyl-4-[(3,5-dimethyl-4-ethoxycarbonylpyrrol-2-yl)methylene]-2-pyrazolin-5-one], the melting point lay within 240 to 242 °C.

`CC(C)OC1=NNC(=O)C1=Cc1ccc(-c2ccccc2)[nH]1` [Example 76, 3-Isopropoxy-4-[(5-phenylpyrrol-2-yl)methylene]-2-pyrazolin-5-one] displayed a melting point of 212 to 214 °C.

As for `O=C1NN=C(C2CC2)C1=Cc1cccn1CCCCO` [Example 81, 3-Cyclopropyl-4-{[1-(4-hydroxybutyl)pyrrol-2-yl]methylene]-2-pyrazolin-5-one], the melting point fell in the range of 134 to 136 °C.

The molecule `Cc1c(CCC(=O)O)c[nH]c1C=C1C(=O)NN=C1OC(C)C` [Example 82, 4-{[4-(2-Carboxyethyl)-3-methylpyrrol-2-yl]methylene}-3-isopropoxy-2-pyrazolin-5-one] yielded a melting point of 267 to 269 °C.

`Cc1[nH]c(C=C2C(=O)NN=C2OC(C)C)c(C)c1C(=O)O` [Example 83, 4-[(4-Carboxy-3,5-dimethylpyrrol-2-yl)methylene]-3-isopropoxy-2-pyrazolin-5-one] returned a melting point of over 300 °C.

`Cc1[nH]c(C=C2C(=O)NN=C2OC(C)C)c(C)c1CN1CCOCC1` [Example 85, 4-[(3,5-Dimethyl-4-morpholinomethylpyrrol-2-yl)methylene]-3-isopropoxy-2-pyrazolin-5-one] came in with a melting point of 162 to 164 °C.

In turn, `Cc1[nH]c(C=C2C(=O)NN=C2OC(C)C)c(C)c1CN(C)C` [Example 86, 4-[(3,5-Dimethyl-4-dimethylaminomethylpyrrol-2-yl)methylene]-3-isopropoxy-2-pyrazolin-5-one] had a melting point of 173 to 175 °C.

`CC(=O)c1c(C)[nH]c(C=C2C(=O)NN=C2OC(C)C)c1C` [Example 87, 4-[(4-Acetyl-3,5-dimethylpyrrol-2-yl)methylene]-3-isopropoxy-2-pyrazolin-5-one] had a melting point of 209 to 210 °C.

`Cc1[nH]c(C=C2C(=O)NN=C2OC(C)C)c(C)c1C(=O)OCCN(C)C` [Example 88, 4-{[4-(2-Dimethylaminoethoxycarbonyl)-3,5-dimethylpyrrol-2-yl]methylene}-3-isopropoxy-2-pyrazolin-5-one] came in with a melting point of 165 to 167 °C.

The molecule `CCOC(=O)c1ccc(C=C2C(=O)NN=C2OC(C)C)[nH]1` [Example 90, 4-[(5-Ethoxycarbonylpyrrol-2-yl)methylene]-3-isopropoxy-2-pyrazolin-5-one] registered a melting point of 205 to 207 °C.

In turn, `CC(C)OC1=NNC(=O)C1=Cc1ccc(C(=O)O)[nH]1` [Example 91, 4-[(5-Carboxypyrrol-2-yl)methylene]-3-isopropoxy-2-pyrazolin-5-one] displayed a melting point of 235 to 237 °C.

`O=C(CC1=NNC(=O)C1=Cc1ccc[nH]1)Nc1ccc(Cl)cc1` [Example 92, 3-(4-Chlorophenylaminocarbonylmethyl)-4-[(pyrrol-2-yl)methylene]-2-pyrazolin-5-one] gave a melting point of 240 to 242 °C.

Molecule `O=C1NN=C(C2CC2)C1=Cc1ccc(-c2ccccc2)[nH]1` [Example 93, 3-Cyclopropyl-4-[(5-phenylpyrrol-2-yl)methylene]-2-pyrazolin-5-one] displayed a melting point of 208 to 210 °C.

The molecule `CCc1c(C)[nH]c(C=C2C(=O)NN=C2C2CCOC2)c1C` (centres unmarked) [Example 94, 4-[(3,5-Dimethyl-4-ethylpyrrol-2-yl)methylene]-3-(tetrahydrofuran-3-yl)-2-pyrazolin-5-one] registered a melting point of 163 to 165 °C.

Turning to `Cc1[nH]c(C=C2C(=O)NN=C2C2CC2)c(C)c1C(=O)O` [Example 95, 4-[(4-Carboxy-3,5-dimethylpyrrol-2-yl)methylene]-3-cyclopropyl-2-pyrazolin-5-one], the melting point was 312 °C (dec.).

On to `CCOC(=O)c1c(C)[nH]c(C=C2C(=O)NN=C2c2cccnc2)c1C` [Example 96, 4-[(3,5-dimethyl-4-ethoxycarbonylpyrrol-2-yl)methylene]-3-(3-pyridyl)-2-pyrazolin-5-one], for which the melting point is 247 to 249 °C.
